The text below walks through data of PubChem BioAssay AID1919008 (Molecular Pharmacology Branch, DTP, NCI, 2023).

The subject of the test is DMS-114 complex spheroids with HUVEC/MSC, growth % test/control. Briefly: Anticancer human tumor DMS-114 cell line growth inhibition [AhR].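 As to all read-outs here: spheroids exposed to agents for 7 days before readout.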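 As to viability, T/C: 100% = DMSO vehicle control wells.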 The following applies: for viability, T/C: stronger effect = lower value. From the text:
Multicellular complex tumor spheroid response to aryl hydrocarbon receptor antagonists in combination with a variety of drugs and investigational agents in selected tumor cell lines
The current study was undertaken to assess response to aryl hydrocarbon receptor antagonists in combination with standard-of-care drugs and investigational agents in solid tumor complex spheroid models. Complex spheroids include a stromal component modeled by human endothelial cells (HUVEC) and fibroblasts modeled by human mesenchymal stem cells (MSCs). The concentration ranges selected for each drug and investigational agent were based upon clinically achievable concentrations if the clinical Cmax of the agent was known.
Compounds. The drugs and investigational agents: BAY 2416964 (NSC825713), GNF351 (NSC835774), CH-223191 (NSC835775), CPI-455 (NSC825282), aza-TdCyd (NSC777586), decitabine (NSC127716), belinostat (NSC758774), entinostat (NSC756642), pevonedistat (NSC761192), tazemetostat (NSC777109), talazoparib (NSC765396), olaparib (NSC753686), selinexor (NSC780203), nedisertib (M3814, NSC802822), bortezomib (NSC756655), venetoclax (NSC766270), doxorubicin (NSC123127), elimusertib (BAY189344, NSC800525), ceralasertib (AZD6738, NSC777638), TAK-243 (NSC785004), alisertib (NSC759677), etoposide (NSC141540), topotecan (NSC609699), eribulin (NSC707389), gemcitabine (NSC613327), carboplatin (NSC241240), cisplatin (NSC119875), and SN-38 (NSC673596) were obtained from the National Cancer Institute (NCI) Developmental Therapeutics Program Chemical Repository (32). The FDA-approved anticancer drug set is available from the Developmental Therapeutics Program at https://dtp.cancer.gov/organization/dscb/obtaining/available plates.htm. […] The stock solutions were prepared in dimethyl sulfoxide (DMSO, Sigma-Aldrich, St. Louis, MO, cat. D2650), except for the platinum compounds which were prepared in saline (Quality Biological, Gaithersburg, MD, cat. 114-055-101), at 800-fold the tested concentration and stored at -70 degrees C prior to their use. All drugs and investigational agents were tested over a range starting from a high concentration at or near the clinical Cmax and decreasing in half-log increments. If the clinical Cmax for an agent had not been determined, the highest concentration tested was 10 microM (Table 1).
Cell Culture. All cells were maintained in an incubator at 37 degrees C and 5% CO2 with 95% humidity. The PDC lines were cultured according to standard operating procedures established by the NCI PDMR (https://pdmr.cancer.gov). Briefly, all PDCs were thawed and cultured in Matrigel-coated flasks prepared with a working solution of 1X Ham's F-12 nutrient mix, without supplementation (Invitrogen, Waltham, MA, cat. 11765054), 100 U/mL penicillin-streptomycin (Invitrogen, cat. 15140122), and 2.5% Matrigel (Corning Inc., Corning, NY, cat. 354248) for the first three passages. All PDCs were cultured in complete DMEM/F-12 media containing advanced DMEM/F-12 (Invitrogen, cat. 12634028), 4.9% defined fetal bovine serum, heat inactivated (HyClone Laboratories Inc., Logan, UT, cat. SH30070.03HI), 389 ng/mL hydrocortisone (Sigma-Aldrich, cat. H4001), 9.7 ng/mL human EGF recombinant protein (Invitrogen, cat. PHG0313), 23.4 microg/mL adenine (Sigma-Aldrich, cat. A2786), 97.3 U/mL penicillin-streptomycin (Invitrogen, cat. 15140122), 1.9 mM L-glutamine (Invitrogen, cat. 25030081), and 9.7 microM Y-27632 dihydrochloride (Tocris Bioscience, Bristol, United Kingdom, cat. 1254). The PDCs were cultured in complete DMEM/F12 media without 10 microM Y-27632 dihydrochloride for at least two passages prior to the screen. The established cell lines NCI-H1341 and […] were cultured in DMEM/F-12, HEPES (Invitrogen, cat. 11330032), 5% defined fetal bovine serum (HyClone Laboratories Inc., cat. SH30070.03), ITS premix universal culture supplement [insulin (5 microg/mL), transferrin (5 microg/mL), and selenious acid (5 ng/mL)] […]

Setting [1] is: curve of first compound, second compound 0.1 µM.
Setting [2] is: curve of first compound, second compound 0.316 µM.
Setting [3] is: curve of first compound, second compound 1 µM.
Where [4] appears, read: curve of first compound, second compound 3.16 µM.
Setting [5] is: curve of first compound, second compound 10 µM.
Where [6] appears, read: second compound 0.1 µM, first compound 0.0316 µM.
The mark [7] stands for this setting: second compound 0.1 µM, first compound 0.1 µM.
The mark [8] stands for this setting: second compound 0.1 µM, first compound 0.316 µM.
The mark [9] stands for this setting: second compound 0.1 µM, first compound 1 µM.
[10] abbreviates: second compound 0.316 µM, first compound 0.0316 µM.
Where [11] appears, read: second compound 0.316 µM, first compound 0.1 µM.
Where [12] appears, read: second compound 0.316 µM, first compound 0.316 µM.
Setting [13] is: second compound 0.316 µM, first compound 1 µM.
Where [14] appears, read: second compound 1 µM, first compound 0.0316 µM.
[15] abbreviates: second compound 1 µM, first compound 0.1 µM.
Setting [16] is: second compound 1 µM, first compound 0.316 µM.
Setting [17] is: second compound 1 µM, first compound 1 µM.
Where [18] appears, read: second compound 3.16 µM, first compound 0.0316 µM.
[19] abbreviates: second compound 3.16 µM, first compound 0.1 µM.
The mark [20] stands for this setting: second compound 3.16 µM, first compound 0.316 µM.
[21] abbreviates: second compound 3.16 µM, first compound 1 µM.
[22] abbreviates: second compound 10 µM, first compound 0.0316 µM.
Setting [23] is: second compound 10 µM, first compound 0.1 µM.
Setting [24] is: second compound 10 µM, first compound 0.316 µM.
Setting [25] is: second compound 10 µM, first compound 1 µM.

Values joined by “and” are separate entries in the source; they are usually repeats but may differ in a detail not shown here. Identical values can stand only once.

By viability, T/C is commonly meant the result in the treated group divided by that in the control group, in per cent. The IC50 is the midpoint of a concentration-inhibition curve. As for `CC(C)c1c(-c2ccccc2)nc2c(C#N)c[nH]n2c1=O`, the viability, T/C was 104% and 106% and 108% (compound 0.0316 µM); 117% and 104% and 101% (compound 0.1 µM); 108% and 99.2% and 105% (compound 0.316 µM); 105% (2×) and 96.3% (compound 1 µM); 116% and 99.7% and 105% (compound 3.16 µM); 111% and 102% (2×) (compound 10 µM). Under “curve of compound”, the IC50 was over 10000 nM.

Consider `CC(CO)NC(=O)c1cc(-c2ccc(Cl)cc2)nn(-c2cnn(C)c2)c1=O` (centres undefined), for which the viability, T/C (compound 0.1 µM) was 98.2% [middle of 20 runs] and the viability, T/C (compound 1 µM) is 95.8% [middle of 21 runs]. The IC50 (compound alone, run of 07/12/2022) was over 10000 nM.

With `CC1COCCN1c1cc(C2(S(C)(=N)=O)CC2)nc(-c2ccnc3[nH]ccc23)n1` (centres undefined), the viability, T/C was 99.2% and 97.3% and 90.2% (compound 0.0316 µM); 114% and 106% and 101% (compound 0.1 µM); 99.1% and 96.2% and 87.3% (compound 0.316 µM); 98.6% and 98.9% and 78.1% (compound 1 µM); 66.1% and 101% and 65.9% (compound 3.16 µM); 27.7% and 76.4% and 33.8% (compound 10 µM). Moreover, the IC50 (curve of compound) is 5130 nM and > 10000 nM and 5460 nM.

Regarding `COc1ccc([C@@H](O)c2cc(-c3ncnc4cc(N5CCOCC5)ccc34)c(F)cc2Cl)nn1`, the viability, T/C (compound 0.0316 µM) was 104% and 102% and 101%; the viability, T/C (compound 0.1 µM) was 107% and 101% and 103%; the viability, T/C (compound 0.316 µM) is 96.9% and 107% and 112%; the viability, T/C (compound 1 µM) was 97.4% and 114% and 94.8%; the viability, T/C (compound 3.16 µM) is 102% and 110% and 95.2%; the viability, T/C (compound 10 µM) was 56% and 96.2% and 56.6%. Further, the IC50 (curve of compound) was over 10000 nM.

As to `Cc1ccccc1N=Nc1ccc(NC(=O)c2ccnn2C)c(C)c1`, the viability, T/C (compound 0.1 µM) is 99.4% [middle of 20 runs]; the viability, T/C (compound 0.316 µM) was 101% [middle of 20 runs]; the viability, T/C (compound 1 µM) was 97.6% [middle of 20 runs]; the viability, T/C (compound 10 µM) is 94% [middle of 20 runs]. Moreover, where the note is “compound alone, run of 07/26/2022”, the IC50 was over 10000 nM.

For `COc1cccc2c1C(=O)c1c(O)c3c(c(O)c1C2=O)CC(O)(C(=O)CO)CC3OC1CC(N)C(O)C(C)O1` (centres undefined) + CC(CO)NC(=O)c1cc(-c2ccc(Cl)cc2)nn(-c2cnn(C)c2)c1=O, the IC50 reads like this: under setting [1], under 31.6 nM; under setting [2], 34 nM; under setting [3], under 31.6 nM; under setting [4], under 31.6 nM; under setting [5], under 31.6 nM. The viability, T/C was 40.4% under setting [6]; 34.1% under setting [7]; 8.85% under setting [8]; 1.01% under setting [9]; 0.27% (second compound 0.1 µM, first compound 3.16 µM); 0.6% (second compound 0.1 µM, first compound 10 µM). For the same compound, the viability, T/C is, setting by setting: under setting [10], 51.2%; under setting [11], 31.4%; under setting [12], 8.15%; under setting [13], 0.97%; (second compound 0.316 µM, first compound 3.16 µM) 0.59%; (second compound 0.316 µM, first compound 10 µM) 0.6%. For the same compound, the viability, T/C under setting [14] was 48.8%; the viability, T/C under setting [15] is 33.5%; the viability, T/C under setting [16] is 10.3%; the viability, T/C under setting [17] is 0.95%; the viability, T/C (second compound 1 µM, first compound 3.16 µM) was 0.33%; the viability, T/C (second compound 1 µM, first compound 10 µM) was 0.54%. The viability, T/C under setting [18] was 43.9%; the viability, T/C under setting [19] was 35.4%; the viability, T/C under setting [20] was 9.19%; the viability, T/C under setting [21] is 0.92%; the viability, T/C (second compound 3.16 µM, first compound 3.16 µM) was 1.14%; the viability, T/C (second compound 3.16 µM, first compound 10 µM) was 0.73%. Further, the viability, T/C is, setting by setting: under setting [22], 43.4%; under setting [23], 27.3%; under setting [24], 9.28%; under setting [25], 0.38%; (second compound 10 µM, first compound 3.16 µM) 0.32%; (second compound 10 µM, first compound 10 µM) 0.4%.

As for `Nc1ncn(C2CC(O)C(CO)O2)c(=O)n1` (centres undefined) + CC(CO)NC(=O)c1cc(-c2ccc(Cl)cc2)nn(-c2cnn(C)c2)c1=O, the IC50 reads like this: under setting [1], over 1000 nM; under setting [2], over 1000 nM; under setting [3], over 1000 nM; under setting [4], over 1000 nM; under setting [5], over 1000 nM. Also, the viability, T/C by setting is: (second compound 0.1 µM, first compound 0.00316 µM) 102%; (second compound 0.1 µM, first compound 0.01 µM) 95.6%; under setting [6], 97.8%; under setting [7], 96.5%; under setting [8], 85%; under setting [9], 61.6%. Further, the viability, T/C was 122% (second compound 0.316 µM, first compound 0.00316 µM); 101% (second compound 0.316 µM, first compound 0.01 µM); 93.9% under setting [10]; 80% under setting [11]; 79.8% under setting [12]; 59.8% under setting [13]. The viability, T/C (second compound 1 µM, first compound 0.00316 µM) is 91.3%; the viability, T/C (second compound 1 µM, first compound 0.01 µM) is 105%; the viability, T/C under setting [14] was 90.3%; the viability, T/C under setting [15] was 93.8%; the viability, T/C under setting [16] is 83.3%; the viability, T/C under setting [17] was 72.3%. The viability, T/C by setting is: (second compound 3.16 µM, first compound 0.00316 µM) 109%; (second compound 3.16 µM, first compound 0.01 µM) 104%; under setting [18], 80.1%; under setting [19], 94.5%; under setting [20], 85.1%; under setting [21], 70.7%. Besides, the viability, T/C was 101% (second compound 10 µM, first compound 0.00316 µM); 99.7% (second compound 10 µM, first compound 0.01 µM); 93.4% under setting [22]; 98% under setting [23]; 91.8% under setting [24]; 76.5% under setting [25].
